Laboratory results from patent publication US20030129629A1, “Methods and compositions for the identification, assessment, prevention, and therapy of human cancers” (Millennium Pharmaceuticals, Inc., priority 2000, published 2003).
Like-named read-outs stand apart in the source and are kept apart here.

Legend:
[1] = system: 60 cancer cell lines (NCI 60 cancer cell line series); settings: cited from earlier work
[2] = system: 60 cancer cell lines (NCI 60 cancer cell line series); experiment: NCI-DTP in vitro cancer screen, sulforhodamine B (SRB) growth inhibition, 48 hour exposure; format: cell-based, human
In short: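 Potency is given as mean −log{GI50} from dose–response curves, manually binned into Low, Medium or High sensitivity. Sixty NCI-DTP tumour lines were treated 48 h with a duplicate, five-dose, ten-fold dilution series, and growth read by SRB staining of cell mass.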

N.N.[Cl][Pt][Cl] [cisplatin, cis-Diamminedichloroplatinum (II), reference compound]
−Log (GI50) ([1]; Breast MCF7(I) CL5001): 5.5
−Log (GI50) ([1]; Ovarian SK-OV-3 CL6011): 5.2
classification of cell line as Low(1), Medium(2), High(3) sensitivity to compound ([2]; Breast BT-549 CL5013): 2
classification of cell line as Low(1), Medium(2), High(3) sensitivity to compound ([2]; Breast HS-578T CL5006): 2
classification of cell line as Low(1), Medium(2), High(3) sensitivity to compound ([2]; Breast MCF7/ADRr CL5002): 2
classification of cell line as Low(1), Medium(2), High(3) sensitivity to compound ([2]; Breast MDA-MB-231 CL5005): 1
classification of cell line as Low(1), Medium(2), High(3) sensitivity to compound ([2]; Breast MDA-N CL5012): 2
classification of cell line as Low(1), Medium(2), High(3) sensitivity to compound ([2]; Breast T-47D CL5014): 1
classification of cell line as Low(1), Medium(2), High(3) sensitivity to compound ([2]; CNS SF-268 CL12014): 3
classification of cell line as Low(1), Medium(2), High(3) sensitivity to compound ([2]; CNS SF-539 CL12016): 2
classification of cell line as Low(1), Medium(2), High(3) sensitivity to compound ([2]; CNS SNB-75(I) CL12005): 2
classification of cell line as Low(1), Medium(2), High(3) sensitivity to compound ([2]; CNS U251(I) CL12009): 2
classification of cell line as Low(1), Medium(2), High(3) sensitivity to compound ([2]; Colon COLO-250 CL4010): 1
classification of cell line as Low(1), Medium(2), High(3) sensitivity to compound ([2]; Colon HCC-2998 CL4002): 2
classification of cell line as Low(1), Medium(2), High(3) sensitivity to compound ([2]; Colon HCT-15 CL4015): 1
classification of cell line as Low(1), Medium(2), High(3) sensitivity to compound ([2]; Colon HT29(I) CL4001): 1
classification of cell line as Low(1), Medium(2), High(3) sensitivity to compound ([2]; Colon SW-620 CL4009): 2
classification of cell line as Low(1), Medium(2), High(3) sensitivity to compound ([2]; Leukemia HL-60(I) CL7008): 3
classification of cell line as Low(1), Medium(2), High(3) sensitivity to compound ([2]; Leukemia K562(I) CL7005): 2
classification of cell line as Low(1), Medium(2), High(3) sensitivity to compound ([2]; Leukemia RPMI-8226(I) CL7010): 2
classification of cell line as Low(1), Medium(2), High(3) sensitivity to compound ([2]; Melanoma LOX IMVI CL10001): 3
classification of cell line as Low(1), Medium(2), High(3) sensitivity to compound ([2]; Melanoma M14 CL10014): 2
classification of cell line as Low(1), Medium(2), High(3) sensitivity to compound ([2]; Melanoma SK-MEL-28 CL10008): 2
sensitivity classification Low(1)/Medium(2)/High(3) ([2]; NSCLC NCI-H23(I) CL1001): 3
sensitivity classification Low(1)/Medium(2)/High(3) ([2]; NSCLC NCI-H460 CL1021): 3
sensitivity classification Low(1)/Medium(2)/High(3) ([2]; NSCLC NCI-H522 CL1003): 2
sensitivity classification Low(1)/Medium(2)/High(3) ([2]; Ovarian IGROV1 CL6010): 2
sensitivity classification Low(1)/Medium(2)/High(3) ([2]; Ovarian OVCAR-4 CL6002): 2
sensitivity classification Low(1)/Medium(2)/High(3) ([2]; Ovarian OVCAR-5 CL6003): 2
sensitivity classification Low(1)/Medium(2)/High(3) ([2]; Ovarian OVCAR-8 CL6005): 2
sensitivity classification Low(1)/Medium(2)/High(3) ([2]; Prostate DU-145 CL11003): 2
sensitivity classification Low(1)/Medium(2)/High(3) ([2]; Renal A498 CL9013): 1
sensitivity classification Low(1)/Medium(2)/High(3) ([2]; Renal RXF-393 CL9016): 2
sensitivity classification Low(1)/Medium(2)/High(3) ([2]; Renal UO-31 CL9004): 2

Bleomycin
−Log (GI50) ([1]; CNS SF-539 CL12016): 7.7
−Log (GI50) ([1]; Melanoma LOX IMVI CL10001): 6.8
−Log (GI50) ([1]; Ovarian OVCAR-3 CL6001): 5.3
classification of cell line as Low(1), Medium(2), High(3) sensitivity to compound ([2]; Breast MCF7(I) CL5001): 2
classification of cell line as Low(1), Medium(2), High(3) sensitivity to compound ([2]; Breast MCF7/ADRr CL5002): 2
classification of cell line as Low(1), Medium(2), High(3) sensitivity to compound ([2]; Breast MDA-MB-231 CL5005): 1
classification of cell line as Low(1), Medium(2), High(3) sensitivity to compound ([2]; Breast MDA-MB-435 CL5011): 1
classification of cell line as Low(1), Medium(2), High(3) sensitivity to compound ([2]; Breast MDA-N CL5012): 1
classification of cell line as Low(1), Medium(2), High(3) sensitivity to compound ([2]; Breast T-47D CL5014): 2
classification of cell line as Low(1), Medium(2), High(3) sensitivity to compound ([2]; CNS SF-268 CL12014): 2
classification of cell line as Low(1), Medium(2), High(3) sensitivity to compound ([2]; CNS SF-295 CL12015): 3
classification of cell line as Low(1), Medium(2), High(3) sensitivity to compound ([2]; CNS SF-539 CL12016): 3
classification of cell line as Low(1), Medium(2), High(3) sensitivity to compound ([2]; CNS SNB-19 CL12002): 2
classification of cell line as Low(1), Medium(2), High(3) sensitivity to compound ([2]; CNS SNB-75(I) CL12005): 2
classification of cell line as Low(1), Medium(2), High(3) sensitivity to compound ([2]; CNS U251(I) CL12009): 2
classification of cell line as Low(1), Medium(2), High(3) sensitivity to compound ([2]; Colon COLO-250 CL4010): 2
classification of cell line as Low(1), Medium(2), High(3) sensitivity to compound ([2]; Colon HCT-15 CL4015): 2
classification of cell line as Low(1), Medium(2), High(3) sensitivity to compound ([2]; Colon HCT-116 CL4003): 2
classification of cell line as Low(1), Medium(2), High(3) sensitivity to compound ([2]; Colon HT29(I) CL4001): 1
classification of cell line as Low(1), Medium(2), High(3) sensitivity to compound ([2]; Colon KM12 CL4017): 1
classification of cell line as Low(1), Medium(2), High(3) sensitivity to compound ([2]; Colon SW-620 CL4009): 2
classification of cell line as Low(1), Medium(2), High(3) sensitivity to compound ([2]; Leukemia CCRF-CEM(I) CL7003): 2
classification of cell line as Low(1), Medium(2), High(3) sensitivity to compound ([2]; Leukemia HL-60(I) CL7008): 2
classification of cell line as Low(1), Medium(2), High(3) sensitivity to compound ([2]; Leukemia K562(I) CL7005): 2
classification of cell line as Low(1), Medium(2), High(3) sensitivity to compound ([2]; Leukemia MOLT-4 CL7006): 2
classification of cell line as Low(1), Medium(2), High(3) sensitivity to compound ([2]; Leukemia SR CL7019): 3
classification of cell line as Low(1), Medium(2), High(3) sensitivity to compound ([2]; Melanoma LOX IMVI CL10001): 3
classification of cell line as Low(1), Medium(2), High(3) sensitivity to compound ([2]; Melanoma M14 CL10014): 2
classification of cell line as Low(1), Medium(2), High(3) sensitivity to compound ([2]; Melanoma MALME-3M CL10002): 2
classification of cell line as Low(1), Medium(2), High(3) sensitivity to compound ([2]; Melanoma SK-MEL-2 CL10005): 1
classification of cell line as Low(1), Medium(2), High(3) sensitivity to compound ([2]; Melanoma SK-MEL-28 CL10008): 1
sensitivity classification Low(1)/Medium(2)/High(3) ([2]; NSCLC NCI-H23(I) CL1001): 2
sensitivity classification Low(1)/Medium(2)/High(3) ([2]; NSCLC NCI-H332M CL1017): 1
sensitivity classification Low(1)/Medium(2)/High(3) ([2]; NSCLC NCI-H522 CL1003): 2
sensitivity classification Low(1)/Medium(2)/High(3) ([2]; Ovarian IGROV1 CL6010): 2
sensitivity classification Low(1)/Medium(2)/High(3) ([2]; Ovarian OVCAR-3 CL6001): 2
sensitivity classification Low(1)/Medium(2)/High(3) ([2]; Ovarian OVCAR-4 CL6002): 2
sensitivity classification Low(1)/Medium(2)/High(3) ([2]; Ovarian OVCAR-5 CL6003): 2
sensitivity classification Low(1)/Medium(2)/High(3) ([2]; Ovarian OVCAR-8 CL6005): 2
sensitivity classification Low(1)/Medium(2)/High(3) ([2]; Ovarian SK-OV-3 CL6011): 2
sensitivity classification Low(1)/Medium(2)/High(3) ([2]; Prostate DU-145 CL11003): 2
sensitivity classification Low(1)/Medium(2)/High(3) ([2]; Prostate PC-3(I) CL11001): 2
sensitivity classification Low(1)/Medium(2)/High(3) ([2]; Renal 786-0 CL9018): 2
sensitivity classification Low(1)/Medium(2)/High(3) ([2]; Renal A498 CL9013): 2
sensitivity classification Low(1)/Medium(2)/High(3) ([2]; Renal ACHN CL9023): 3
sensitivity classification Low(1)/Medium(2)/High(3) ([2]; Renal SN12C CL9008): 2
sensitivity classification Low(1)/Medium(2)/High(3) ([2]; Renal TK10 CL9024): 1
